From patent US6620828B2, “Thiazole compounds and pharmaceutical compositions for inhibiting protein kinases and methods for their use” (Agouron Pharmaceuticals, Inc., priority 1999, dated 2003)
pIC50, pKi: −log10 of the molar value.

Legend:
[1] = target: T1, unphosphorylated VEGF-R2Δ50 (FLVK) (Homo sapiens, UniProt P35968, DEL940-989/E990V); assay: VEGF-R2 coupled spectrophotometric assay, unphosphorylated enzyme (FLVK); assay type: biochemical; settings: Table 3; for pKi: some entries 'Slow binder'; for inhibition at 0.05 µM: at 50 nM
T1 construct: VEGF-R2Δ50 contains residues 806-939 and 990-1171; made in house; host or cells: baculovirus/insect cells
T1 sequence (P35968 with tags, fused parts or gaps DEL940-989/E990V limits assumed): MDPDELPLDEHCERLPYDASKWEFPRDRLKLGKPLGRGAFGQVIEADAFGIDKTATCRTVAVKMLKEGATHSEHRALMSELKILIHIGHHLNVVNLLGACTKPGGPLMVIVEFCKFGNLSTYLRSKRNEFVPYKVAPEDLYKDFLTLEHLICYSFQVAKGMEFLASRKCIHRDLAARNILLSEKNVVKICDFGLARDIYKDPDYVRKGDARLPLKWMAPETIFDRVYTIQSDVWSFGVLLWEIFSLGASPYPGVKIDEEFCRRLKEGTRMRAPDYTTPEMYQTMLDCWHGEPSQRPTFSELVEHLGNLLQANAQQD
Excerpt: VEGF-R2 Construct for Assay: This construct determines the ability of a test compound to inhibit tyrosine kinase activity. A construct (VEGF-R2Δ50) of the cytosolic domain of human vascular endothelial growth factor receptor 2 (VEGF-R2) lacking the 50 central residues of the 68 residues of the kinase insert domain was expressed in a baculovirus/insect cell system. Of the 1356 residues of full-length VEGF-R2, VEGF-R2Δ50 contains residues 806-939 and 990-1171, and also one point mutation (E990V) within the kinase insert domain relative to wild-type VEGF-R2. Autophosphorylation of the purified construct was performed by incubation of the enzyme at a concentration of 4 μM in the presence of 3 mM ATP and 40 mM MgCl2 in 100 mM Hepes, pH 7.5, containing 5% glycerol and 5 mM DTT, at 4° C. for 2 h. […] See Parast et al., Biochemistry, 37, 16788-16801 (1998).
The production of ADP from ATP that accompanies phosphoryl transfer was coupled to oxidation of NADH using phosphoenolpyruvate (PEP) and a system having pyruvate kinase (PK) and lactic dehydrogenase (LDH). The oxidation of NADH was monitored by following the decrease of absorbance at 340 nm (e340=6.22 cm^−1 mM^−1) using a Beckman DU 650 spectrophotometer. Assay conditions for phosphorylated VEGF-R2Δ50 (indicated as FLVK-P in the tables below) were the following: 1 mM PEP; 250 μM NADH; 50 units of LDH/mL; 20 units of PK/mL; 5 mM DTT; 5.1 mM poly(E4Y1); 1 mM ATP; and 25 mM MgCl2 in 200 mM Hepes, pH 7.5. Assay conditions for unphosphorylated VEGF-R2Δ50 (indicated as FLVK in the tables) were the following: 1 mM PEP; 250 μM NADH; 50 units of LDH/mL; 20 units of PK/mL; 5 mM DTT; 20 mM poly(E4Y1); 3 mM ATP; and 60 mM MgCl2 and 2 mM MnCl2 in 200 mM Hepes, pH 7.5. Assays were initiated with 5 to 40 nM of enzyme. Ki values were determined by measuring enzyme activity in the presence of varying concentrations of test compounds. The data were analyzed using Enzyme Kinetic and Kaleidagraph software.

[2] = tested on: human umbilical vein endothelial cells (HUVEC); assay: HUVEC proliferation assay; assay type: cell-based; settings: Homo sapiens, HUVEC, Table 3
How it was run: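 Readout was MTT dye reduction (A595) after 72 h of stimulation with VEGF at 6 ng/ml final. Compound, in 0.1% DMSO final, was added 1 h before VEGF to HUVEC starved 24 h in 1% FBS. % inhibition was scaled between VEGF-alone and unstimulated wells; IC50 was fitted from triplicate dose curves.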

| Structure (SMILES) | pKi [1] | pIC50 [2] | inhibition at 0.05 µM [1] [%] |
| --- | --- | --- | --- |
| COc1cc(Nc2nc(N)c(-c3nc(-c4cc(NC(=O)OC(C)(C)C)ccc4C)no3)s2)cc(OC)c1OC [B(6), 3-(2-methyl-5-(tert-butyloxycarboxyamino)-phenyl)-5-[2-[(3,4,5 trimethoxyphenyl)-amino]-4-amino-5-thiazolyl]-1,2,4-oxadiazole] | 9.21 | 7.25 |  |
| COc1cc(Nc2nc(N)c(-c3nc(-c4cc(NC(=O)OC(C)(C)C)c(F)cc4F)no3)s2)cc(OC)c1OC [B(13), (5-{5-[4-Amino-2-(3,4,5-trimethoxy-phenylamino)-thiazol-5-yl]-[1,2,4]oxadiazol-3-yl}-2,4-difluoro-phenyl)-carbamic acid tert-butyl ester] | 8.89 | 6.52 |  |
| COc1cc(Nc2nc(N)c(-c3nc(-c4cc(NC(=O)OC(C)(C)C)c(Cl)cc4Cl)no3)s2)cc(OC)c1OC [B(15), (5-{5-[4-Amino-2-(3,4,5-trimethoxy-phenylamino)-thiazol-5-yl]-[1,2,4]oxadiazol-3-yl}-2,4-dichloro-phenyl)-carbamic acid tert-butyl ester] | 8.77 | 7.00 |  |
| COc1cccc(C(=O)Nc2ccc(C)c(-c3noc(-c4sc(NC(C)C)nc4N)n3)c2)c1 [B(22), N-{3-[5-(4-Amino-2-isopropylamino-thiazol-5-yl)-[1,2,4]oxadiazol-3-yl]-4-methyl-phenyl}-3-methoxy-benzamide] |  | < 6.00 | 54 |
| COc1cc(Nc2nc(N)c(-c3nc(-c4cccc(-c5nc(C)n[nH]5)c4)no3)s2)cc(OC)c1OC [B(37)] |  | < 6.00 | 36 |
| COc1cc(Nc2nc(N)c(-c3nc(-c4cccc(-c5nc(C(C)C)n[nH]5)c4)no3)s2)cc(OC)c1OC [B(38), 5-{3-[3-(5-isopropyl-2H-[1,2,4]triazol-3-yl)-phenyl]-[1,2,4]oxadiazol-5-yl}-N2-(3.4,5-trimethoxy-phenyl)-thiazole-2,4-diamine] |  | < 6.15 | 13 |
| COc1cc(Nc2nc(N)c(-c3nc(-c4cccc(-c5nc(CC(C)C)n[nH]5)c4)no3)s2)cc(OC)c1OC [B(39)] | 8.20 | < 7.00 |  |
| COc1cc(Nc2nc(N)c(-c3nc(-c4cc(N)ccc4C)no3)s2)cc(OC)c1OC [C(6), 3-(3-amino-6-methyl-phenyl)-5-[2-[(3,4,5 trimethoxyphenyl)-amino]-4-amino-5-thiazolyl]-1,2,4-oxadiazole] | 7.48 | 6.52 |  |
| COc1cc(Nc2nc(N)c(-c3nc(-c4cc(N)ccc4Cl)no3)s2)cc(OC)c1OC [C(7), 5-[3-(5-Amino-2-chloro-phenyl)-[1,2,4]oxadiazol-5-yl]-N2-(3,4,5-trimethoxy-phenyl)-thiazole-2,4-diamine] | 7.77 | 6.52 |  |
| Cc1cccc(C(=O)Nc2cccc(-c3noc(-c4sc(NS(C)(=O)=O)nc4N)n3)c2)c1 [F(15), N-{3-[5-(4-Amino-2-methanesulfonylamino-thiazol-5-yl)-[1,2,4]oxadiazol-3-yl]-phenyl}-3-methyl-benzamide] |  |  | 5 |
| COc1cccc(C(=O)Nc2cc(-c3noc(-c4sc(NC(=O)NCCN5CCOCC5)nc4N)n3)c(F)cc2F)c1 [O(1), N-[5-(5-{4-Amino-2-[3-(2-morpholin-4-yl-ethyl)-ureido]-thiazol-5-yl}-[1,2,4]oxadiazol-3-yl)-2,4-difluoro-phenyl]-3-methoxy-benzamide] | 9.55 |  |  |
| COc1cccc(C(=O)Nc2cc(-c3noc(-c4sc(NC(=O)NCC(N)=O)nc4N)n3)c(F)cc2F)c1 [O(3), N-(5-{5-[4-Amino-2-(3-carbamoylmethyl-ureido)-thiazol-5-yl]-[1,2,4]oxadiazol-3-yl}-2,4-difluoro-phenyl)-3-methoxy-benzamide] | 9.24 |  |  |
| COc1cccc(C(=O)Nc2cc(-c3noc(-c4sc(NC(=O)NCC5CCCO5)nc4N)n3)c(F)cc2F)c1 (stereo not shown) [O(5), N-[5-(5-{4-Amino-2-[3-(tetrahydro-furan-2-ylmethyl)-ureido]-thiazol-5-yl}-[1,2,4]oxadiazol-3-yl)-2,4-difluoro-phenyl]-3-methoxy-benzamide] | 9.66 |  |  |
| COc1cccc(C(=O)Nc2cc(-c3noc(-c4sc(NC(=O)NCCOCCO)nc4N)n3)c(F)cc2F)c1 [O(6), N-{5-[5-(4-Amino-2-{3-[2-(2-hydroxy-ethoxy)-ethyl]-ureido}-thiazol-5-yl)-[1,2,4]oxadiazol-3-yl]-2,4-difluoro-phenyl}-3-methoxy-benzamide] | 9.82 |  |  |
| COc1cccc(C(=O)Nc2cc(-c3noc(-c4sc(NC(=O)NCc5ccccn5)nc4N)n3)c(F)cc2F)c1 [O(8), N-(5-{5-[4-Amino-2-(3-pyridin-2-ylmethyl-ureido)-thiazol-5-yl]-[1,2,4]oxadiazol-3-yl}-2,4-difluoro-phenyl)-3-methoxy-benzamide] | 9.68 |  |  |
| COc1cccc(C(=O)Nc2cc(-c3csc(-c4sc(NC(=O)NCc5ccccn5)nc4N)n3)c(F)cc2F)c1 [O(16), N-{5-[4′-Amino-2′-(3-pyridin-2-ylmethyl-ureido)-[2,5′]bithiazolyl-4-yl]-2,4-difluoro-phenyl}-3-methoxy-benzamide] |  |  | 11 |
| CC[C@@H](CO)NC(=O)Nc1nc(N)c(-c2nc(-c3cc(NC(=O)c4cccc(OC)c4)c(F)cc3F)cs2)s1 [O(22), N-(5-{4′-Amino-2′-[3-((S)-1-hydroxymethyl-propyl)-ureido]-[2,5′]bithiazolyl-4-yl}-2,4-difluoro-phenyl)-3-methoxy-benzamide] | 8.82 |  |  |
| COc1cccc(C(=O)Nc2cc(-c3csc(-c4sc(NC(=O)NC[C@@H]5CCCO5)nc4N)n3)c(F)cc2F)c1 [O(23), N-[5-(4′-Amino-2′-{3-[(S)-1-(tetrahydro-furan-2-yl)methyl]-ureido}-[2,5′]bithiazolyl-4-yl)-2,4-difluoro-phenyl]-3-methoxy-benzamide] |  |  | 29 |
| COc1cccc(C(=O)Nc2cc(-c3csc(-c4sc(NC(=O)NC[C@H]5CCCO5)nc4N)n3)c(F)cc2F)c1 [O(24), N-[5-(4′-Amino-2′-{3-[(R)-1-(tetrahydro-furan-2-yl)methyl]-ureido}-[2,5′]bithiazolyl-4-yl)-2,4-difluoro-phenyl]-3-methoxy-benzamide] |  |  | 22 |
| COc1cccc(C(=O)Nc2cc(-c3csc(-c4sc(NC(=O)NCC5CCCCC5)nc4N)n3)c(F)cc2F)c1 [O(25), N-{5-[4′-Amino-2′-(3-cyclohexylmethyl-ureido)-[2,5′]bithiazolyl-4-yl]-2,4-difluoro-phenyl}-3-methoxy-benzamide] |  |  | 28 |
| COc1cccc(C(=O)Nc2cc(-c3csc(-c4sc(NC(=O)NCCN5CCOCC5)nc4N)n3)c(F)cc2F)c1 [O(26), N-(5-{4′-Amino-2′-[3-(2-morpholin-4-yl-ethyl)-ureido]-[2,5′]bithiazolyl-4-yl}-2,4-difluoro-phenyl)-3-methoxy-benzamide] | 8.85 |  |  |
| COc1cccc(C(=O)Nc2cc(-c3csc(-c4sc(NC(=O)NCCN5CCCC5)nc4N)n3)c(F)cc2F)c1 [O(27), N-(5-{4′-Amino-2′-[3-(2-pyrrolidin-1-yl-ethyl)-ureido]-[2,5′]bithiazolyl-4-yl}-2,4-difluoro-phenyl)-3-methoxy-benzamide] | 8.77 |  |  |
| COc1cccc(C(=O)Nc2cc(-c3csc(-c4sc(NC(=O)NCCOCCO)nc4N)n3)c(F)cc2F)c1 [O(28), N-[5-(4′-Amino-2′-{3-[2-(2-hydroxy-ethoxy)-ethyl]-ureido}-[2,5′]bithiazolyl-4-yl)-2,4-difluoro-phenyl]-3-methoxy-benzamide] | 9.54 |  |  |
| COc1cccc(C(=O)Nc2cc(-c3csc(-c4sc(NC(=O)NCCc5ccncc5)nc4N)n3)c(F)cc2F)c1 [O(30), N-(5-{4′-Amino-2′-[3-(2-pyridin-4-yl-ethyl)-ureido]-[2,5′]bithiazolyl-4-yl}-2,4-difluoro-phenyl)-3-methoxy-benzamide] |  |  | 39 |
| CNC(=O)Nc1nc(N)c(-c2nc(-c3cccc(NC(=O)c4cccc(OC)c4)c3)c(C)s2)s1 [O(31), N-{3-[4′-Amino-5-methyl-2′-(3-methyl-ureido)-[2,5′]bithiazolyl-4-yl]-phenyl}-3-methoxy-benzamide] | 9.64 |  |  |
